Read-outs that look alike come from different tables or passages of the source.
Tests used:
TGF-β = test: AlphaScreen SureFire p-SMAD3 (Ser423/425) assay, TGF-β-stimulated cells; assay type: cell-based; conditions: Mus musculus
Text: (§1) The p-SMAD-3 (Ser423/425) SureFire® assay has been designed to measure the phosphorylation of endogenous cellular p-SMAD-3 (Ser423/425) in cell lysates and is a system for the screening of both modulators of receptor activation (e.g. agonists and antagonists) as well as agents acting intracellularly, such as small molecule inhibitors of upstream events. The assay will measure p-SMAD-3 (Ser423/425) activation by either cloned or endogenous receptors, and can be applied to primary cells.
(§2) 96-well Assay Protocol for 293FT and RMS13 adherent cells can be carried out manually or in high throughput with liquid handling robots.
(§3) The cells (80 μL of cells for 96 well plates) were plated in collagen coated tissue culture plates in RPMI or FreeStyle medium (Invitrogen) and incubated overnight. For manual analysis, 6 plates for GDF8, 6 plates for TGFβ, and optionally 6 plates for Alk5ca(ALK5 constitutively active) were used.
(§4) The compound dilution plates were prepared as follows: 12 μL of DMSO was transferred into first column of 96-well plate, and 16 μL of DMSO was transferred into columns 2-12 of the 96-well plate. 12 μL of compound solution was transferred into first column of the DMSO-containing 96-well plate. Three-fold dilution was performed up to column 10 of the DMSO-containing 96-well plate.
(§5) The plate containing cells were treated with compounds for about 10 minutes, and then ligand was added. GDF8 or TGFb was added to plates to stimulate. 293FL cells were stimulatedfor 90 minutes at 37° C.; and RMS13 cells were stimulated for 60 minutes at 37° C. The medium was then removed from the cells, and 1× Lysis Buffer (about 25 μL) was added and the plate was gently agitated on plate shaker for 5-10 minutes.
(§6) The lysate (5 μL) was then placed into 384-well shallow plates avoiding the generation of bubbles. To this, the Reaction Buffer+Activation Buffer+AlphaScreen® Acceptor beadsmixture (5 μL) was added. The plate was sealed with adhesive cover and shielded from light (e.g., with metal foil), and agitated gently on plate shaker for 2 hours at room temperature.
(§7) Dilution buffer+AlphaScreen® Donor beads (2 μL) was then added, and the plate was intubated on the plate shaker for an additional 1½ hours. After completion, the plate was read on Synergy-4 or Enspire plate reader, using AlphaScreen® pSMAD3® settings.
(§8) Representative results for inhibition of GDF8 (data=GDF pSMAD (MPC11) (μM)) and TGF-β (data=TGF-β pSMAD (MPC-11) (μM)) signaling are shown in Table 1(A=<0.05 μM, B=0.05−<0.1 μM, C=0.1−<1.0 μM, D=>1.0 μM): […]

GDF8 = test: AlphaScreen SureFire p-SMAD3 (Ser423/425) assay, GDF8-stimulated cells; assay type: cell-based; conditions: Mus musculus, MPC-11; p-SMAD3 (Ser423/425) AlphaScreen in cell lysate; MPC11; GDF8 stimulation; read-out: GDF8: inhibition of GDF8 signaling, GDF pSMAD (MPC11)
Text: as §1, §2, §3, §4, §5, §6, §7, §8

[1] = p-SMAD3 (Ser423/425) AlphaScreen in cell lysate, MPC-11, TGF-β stimulation, read-out: TGF-β: inhibition of TGF-β signaling, TGF-β pSMAD (MPC-11)

| IC50 (TGF-β; [1]) [µM] | IC50 (GDF8) [µM] | SMILES | IC50 (TGF-β; MPC-11, read-out: TGF-β: inhibition of TGF-β signaling, TGF-β pSMAD (MPC-11), p-SMAD3 (Ser423/425) AlphaScreen in cell lysate, TGF-β stimulation) [µM] |
| --- | --- | --- | --- |
| 0.1 to 1 | 0.05 to 0.1 | Cc1cccc(-c2nc3n(c2-c2ccc4nccn4c2)CCC3)c1 [Compound 1, 6-(2-(m-tolyl)-6,7-dihydro-5H-pyrrolo[1,2-a]imidazol-3-yl)imidazo[1,2-c]pyridine] | – |
| 0.1 to 1 | 0.1 to 1 | Fc1ccc(-c2nc3n(c2-c2ccc4nccn4c2)CCC3)cc1 [Compound 2] | – |
| 0.1 to 1 | 0.05 to 0.1 | Cc1cc(-c2nc3n(c2-c2ccc4nccn4c2)CCC3)ccc1F [Compound 3, 6-(2-(4-fluoro-3-methylphenyl)-6,7-dihydro-5H-pyrrolo[1,2-a]imidazol-3-yl)imidazo[1,2-a]pyridine] | – |
| 0.1 to 1 | 0.1 to 1 | FC(F)(F)c1cccc(-c2nc3n(c2-c2ccc4nccn4c2)CCC3)c1 [Compound 4] | – |
| 0.1 to 1 | 0.1 to 1 | COc1cccc(-c2nc3n(c2-c2ccc4nccn4c2)CCC3)c1 [Compound 5] | – |
| 0.1 to 1 | 0.1 to 1 | Clc1cccc(-c2nc3n(c2-c2ccc4nccn4c2)CCC3)c1 [Compound 6, 6-(2-(3-chlorophenyl)-6,7-dihydro-5H-pyrrolo[1,2-a]imidazol-3-yl)imidazo[1,2-a]pyridine] | – |
| > 1 | 0.1 to 1 | Fc1cccc(-c2nc3n(c2-c2ccc4nccn4c2)CCC3)c1 [Compound 7, 6-(2-(3-fluorophenyl)-6,7-dihydro-5H-pyrrolo[1,2-c]imidazol-3-yl)imidazo[1,2-c]pyridine] | – |
| 0.1 to 1 | 0.1 to 1 | Fc1ccccc1-c1nc2n(c1-c1ccc3nccn3c1)CCC2 [Compound 8] | – |
| 0.1 to 1 | < 0.05 | Fc1ccc(-c2nc3n(c2-c2ccc4nccn4c2)CCC3)c(F)c1 [Compound 9] | – |
| > 1 | 0.1 to 1 | Fc1ccc(-c2nc3n(c2-c2ccc4nccn4c2)CCC3)cc1F [Compound 10] | – |
| > 1 | 0.1 to 1 | Fc1cccc(F)c1-c1nc2n(c1-c1ccc3nccn3c1)CCC2 [Compound 11] | – |
| 0.1 to 1 | < 0.05 | Fc1cc(F)c(-c2nc3n(c2-c2ccc4nccn4c2)CCC3)cc1F [Compound 12] | – |
| > 1 | 0.1 to 1 | Fc1cc(-c2nc3n(c2-c2ccc4nccn4c2)CCC3)cc(F)c1F [Compound 13] | – |
| 0.1 to 1 | < 0.05 | Fc1cc(F)c(-c2nc3n(c2-c2ccc4ncnn4c2)CCC3)cc1F [Compound 14, 6-(2-(2,4,5-trifluorophenyl)-6,7-dihydro-5H-pyrrolo[1,2-a]imidazol-3-yl)-[1,2,4]triazolo[1,5-a]pyridine] | – |
| > 1 | 0.1 to 1 | Fc1ccc(-c2nc3n(c2-c2ccc4ncnn4c2)CCC3)c(F)c1F [Compound 15, 6-(2-(2,3,4-trifluorophenyl)-6,7-dihydro-5H-pyrrolo[1,2-a]imidazol-3-yl)-[1,2,4]triazolo[1,5-a]pyridine] | – |
| > 1 | 0.1 to 1 | Fc1cc(-c2nc3n(c2-c2ccc4ncnn4c2)CCC3)cc(F)c1F [Compound 16, 6-(2-(3,4,5-trifluorophenyl)-6,7-dihydro-5H-pyrrolo[1,2-a]imidazol-3-yl)-[1,2,4]triazolo[1,5-a]pyridine] | – |
| > 1 | 0.1 to 1 | Fc1cc(F)c(F)c(-c2nc3n(c2-c2ccc4ncnn4c2)CCC3)c1 [Compound 17, 6-(2-(2,3,5-trifluorophenyl)-6,7-dihydro-5H-pyrrolo[1,2-a]imidazol-3-yl)-[1,2,4]triazolo[1,5-a]pyridine] | – |

| IC50 (TGF-β; [1]) [µM] | IC50 (GDF8) [µM] | SMILES | IC50 (TGF-β; MPC-11, read-out: TGF-β: inhibition of TGF-β signaling, TGF-β pSMAD (MPC-11), p-SMAD3 (Ser423/425) AlphaScreen in cell lysate, TGF-β stimulation) [µM] |
| --- | --- | --- | --- |
| > 1 | 0.1 to 1 | Fc1cc(-c2nc3n(c2-c2ccc4ncnn4c2)CCC3)c(F)cc1Cl [Compound 18, 6-(2-(4-chloro-2,5-difluorophenyl)-6,7-dihydro-5H-pyrrolo[1,2-a]imidazol-3-yl)-[1,2,4]triazolo[1,5-a]pyridine] | – |
| > 1 | > 1 | Fc1cc(-c2nc3n(c2-c2ccc4nccn4c2)CCC3)c(F)cc1Cl [Compound 19, 6-(2-(4-chloro-2,5-difluorophenyl)-6,7-dihydro-5H-pyrrolo[1,2-a]imidazol-3-yl)imidazo[1,2-a]pyridine] | – |
| > 1 | > 1 | CC(C)c1nnc2ccc(-c3c(-c4cc(F)c(Cl)cc4F)nc4n3CCC4)cn12 [Compound 20, 6-(2-(4-chloro-2,5-difluorophenyl)-6,7-dihydro-5H-pyrrolo[1,2-a]imidazol-3-yl)-3-isopropyl-[1,2,4]triazolo[4,3-a]pyridine] | – |
| > 1 | > 1 | CC(C)c1nnc2ccc(-c3c(-c4cc(F)c(F)cc4F)nc4n3CCC4)cn12 [Compound 21, 3-isopropyl-6-(2-(2,4,5-trifluorophenyl)-6,7-dihydro-5H-pyrrolo[1,2-a]imidazol-3-yl)-[1,2,4]triazolo[4,3-a]pyridine] | – |
| > 1 | > 1 | CC(C)c1nnc2ccc(-c3c(-c4cc(F)cc(F)c4F)nc4n3CCC4)cn12 [Compound 22, 3-isopropyl-6-(2-(2,3,5-trifluorophenyl)-6,7-dihydro-5H-pyrrolo[1,2-a]imidazol-3-yl)-[1,2,4]triazolo[4,3-a]pyridine] | – |
| > 1 | > 1 | CC(C)c1nnc2ccc(-c3c(-c4ccc(F)c(F)c4F)nc4n3CCC4)cn12 [Compound 23, 3-isopropyl-6-(2-(2,3,4-trifluorophenyl)-6,7-dihydro-5H-pyrrolo[1,2-a]imidazol-3-yl)-[1,2,4]triazolo[4,3-a]pyridine] | – |
| > 1 | > 1 | Cc1cc(-c2nc3n(c2-c2ccc4ncnn4c2)CCC3)cc(C)c1Cl [Compound 24, 6-(2-(4-chloro-3,5-dimethylphenyl)-6,7-dihydro-5H-pyrrolo[1,2-a]imidazol-3-yl)-[1,2,4]triazolo[1,5-a]pyridine] | – |
| > 1 | > 1 | Cc1cc(-c2nc3n(c2-c2ccc4nccn4c2)CCC3)cc(C)c1Cl [Compound 25, 6-(2-(4-chloro-3,5-dimethylphenyl)-6,7-dihydro-5H-pyrrolo[1,2-a]imidazol-3-yl)imidazo[1,2-a]pyridine] | – |
| > 1 | > 1 | Cc1ccc(-c2nc3n(c2-c2ccc4ncnn4c2)CCC3)c(F)c1F [Compound 26, 6-(2-(2,3-difluoro-4-methylphenyl)-6,7-dihydro-5H-pyrrolo[1,2-a]imidazol-3-yl)-[1,2,4]triazolo[1,5-a]pyridine] | – |
| > 1 | > 1 | Cc1ccc(-c2nc3n(c2-c2ccc4nccn4c2)CCC3)c(F)c1F [Compound 27] | – |
| > 1 | > 1 | Cc1cc(-c2nc3n(c2-c2ccc4ncnn4c2)CCC3)c(F)cc1Cl [Compound 28, 6-(2-(4-chloro-2-fluoro-5-methylphenyl)-6,7-dihydro-5H-pyrrolo[1,2-c]imidazol-3-yl)-[1,2,4]triazolo[1,5-c]pyridine] | – |
| > 1 | > 1 | Cc1cc(-c2nc3n(c2-c2ccc4nccn4c2)CCC3)c(F)cc1Cl [Compound 29] | – |
| > 1 | > 1 | COc1c(C)cc(-c2nc3n(c2-c2ccc4ncnn4c2)CCC3)cc1C [Compound 30, 6-(2-(4-methoxy-3,5-dimethylphenyl)-6,7-dihydro-5H-pyrrolo[1,2-a]imidazol-3-yl)-[1,2,4]triazolo[1,5-a]pyridine] | – |
| > 1 | > 1 | COc1c(C)cc(-c2nc3n(c2-c2ccc4nccn4c2)CCC3)cc1C [Compound 31, 6-(2-(4-methoxy-3,5-dimethylphenyl)-6,7-dihydro-5H-pyrrolo[1,2-c]imidazol-3-yl)imidazo[1,2-c]pyridine] | – |
| > 1 | 0.1 to 1 | Cc1cc(F)c(F)cc1-c1nc2n(c1-c1ccc3nccn3c1)CCC2 [Compound 32] | – |
| – | – | Cc1cccc(-c2nc3n(c2-c2ccc4ncsc4c2)CCC3)n1 [Compound 364, 6-(2-(6-methylpyridin-2-yl)-6,7-dihydro-5H-pyrrolo[1,2-a]imidazol-3-yl)benzo[d]thiazole] | < 0.05 |

From patent publication US10696693B2, “Fused imidazole derivatives as TGF-beta inhibitors” (Rigel Pharmaceuticals, Inc., priority 2014, dated 2020)
